Source: patent US4477670A, “4-Aryloxy-1,2,3,4-tetrahydroisoquinolines” (Hoechst-Roussel Pharmaceuticals Inc., priority 1982, dated 1984)
Structures can show the parent of a compound that is named as a salt. Where two headings read alike, the source gives them in different places.

Assays:
[1] = system: supra maximal electroshock (extensor tonus); experiment: supra maximal electroshock assay (anticonvulsant); type: in vivo, male mice (Charles River, CD-1); conditions: Mus musculus, ip, read-out: % Inhibition (anticonvulsant effect)
Experimental: The compounds of the present invention are also useful as anticonvulsant agents for mammals as evidenced by the supra maximal electroshock assay of Woodbury, L. A. and Davenport, U. D. in Arch. Int. Pharmacodynam, Vol. 92 (1952) at pages 97-107.
In this method, groups of male mice are used (Charles River, CD-1), 18-30 grams. Drugs are prepared using distilled water and if insoluble, a surfactant is added. Control animals receive vehicle. Drugs are routinely administered intraperitoneally. The route of administration may be varied (orally, subcutaneously). The dosage volume is 10 ml/kg.
The animal's eyes are placed across the output terminals of an A.C. shocker that delivers 205 volts rms for 300 milliseconds. Electrode paste coats the animal's eyes at the point of contact with the terminals.
Protection is expressed as normalized percent inhibition relative to vehicle control.
A time response is carried out using 6 animals per group. Animals are tested at 30, 60 and 120 minutes post-drug. Additional time periods are tested if indicated by previous tests.
Listed below in Table II is the anticonvulsant effect of some of the compounds of the invention expressed as percent inhibition.

[2] = system: phenyl-para-quinone induced writhing; experiment: phenyl-para-quinone writhing assay in mice (analgesia); type: in vivo; conditions: subcutaneous
From the text: The compounds of the invention are primarily useful as analgesic and anticonvulsant agents. […] Exptl. Biol. Med., 95, 729 (1953)]. Listed below in Table III is the analgesic effect of some of the compounds of the invention, expressed as percent inhibition of phenyl-para-quinone induced writhing.

[3] = diuretic activity in rats, drug to urea ratio; type: in vivo, female Wistar rats; conditions: oral, urine 0-5 hours, vs urea 1000 mg/kg
Experimental: Selected compounds of the present invention are useful as diuretics. The diuretic activity of the compounds is measured in the following manner. Groups of female Wistar rats (150-200 grams) are used and they are food deprived 16 hours prior to testing. Drugs are prepared in 1% saline and administered in a dosage volume of 15 ml/kg orally. After dosing each animal is placed in an individual metabolic cage. Water is permitted ad libitum. Urine is collected from 0-5 hours after dosing. […] The individual urine samples are analyzed for sodium and/or potassium and chloride. Sodium and potassium values are typically determined using a flame photometer. Chloride determinations are typically made by a chloride analyzer. Sodium, potassium and chloride values are expressed as the mean milliequivalents (mEq)/kg/5 hrs. Diuresis is expressed as the mean milliliters (ml)/kg/5 hrs. The mean values obtained for sodium, potassium, chloride and diuresis are expressed in a ratio to the sodium, potassium, chloride and diuresis values obtained for the urea treated group. This ratio is called the "drug to urea ratio." A drug to urea ratio greater than or equal to one for diuresis and/or sodium is indicative of diuretic activity. The diuretic effect of some of the compounds of the invention, expressed as the ratio of (a) the mean values obtained for diuresis (urine volume) of the compound treated group to the urea treated group and (b) the mean values obtained for sodium of the compound treated group to the urea treated group, are given in Table I.

[4] = system: 5-HTP activity (continuous forelimb clonus); experiment: L-5-hydroxytryptophan (5 HTP) potentiation in rats; type: in vivo, male Wistar rats; conditions: Rattus norvegicus, ip
Experimental: Groups of six male Wistar rats (150-200 grams) are used in this test procedure. Four hours prior to testing pargyline HCl is prepared and administered by subcutaneous injection at 75 mg/kg in 1% saline and at a dosage volume of 1.25 ml/kg. Thirty minutes before testing, drugs are prepared using distilled water and, if insoluble, a suitable surfactant is added. Control groups receive vehicle. Drugs are routinely administered intraperitoneally (i.p.) at a dosage volume of 10 ml.kg. L-5-Hydroxytryptophan is prepared at 1.0 mg/kg in distilled water and is administered i.p. in volumes proportional to 10 ml/kg. Drugs are administered in a randomized manner and 5-minute post 5-HTP treatment the animals are observed for 15 minutes. […] Potentiation is expressed as normalized percent potentiation relative to vehicle control. When a compound is observed to potentiate 5-HTP activity, a dose range using ten animals per group is run in the same manner. An effective dose (ED) is determined by probit analysis.

[5] = system: ptosis of tetrabenazine-induced depression; experiment: inhibition of tetrabenazine-induced depression (ptosis) in mice; type: in vivo; conditions: intraperitoneal
[6] = intraperitoneal, probit analysis, read-out: ED50 (5-HTP potentiation)

## CN(C)CCN1Cc2ccccc2C(Oc2ccc(C(F)(F)F)cc2)C1 (stereo not drawn) [2-(2-N,N-Dimethylaminoethyl)-4-(p-trifluoromethylphenoxy)-1,2,3,4-tetrahydroisoquinoline dihydrochloride]
[1]; intraperitoneal, 10.3 mg/kg
  inhibition in vivo at 10.3 mg/kg: 50%
[2]; 14.4 mg/kg
  % Inhibition of phenyl-para-quinone induced writhing: 50%

## Propoxyphene [reference compound]
[2]; 3.9 mg/kg
  % Inhibition of phenyl-para-quinone induced writhing: 50%

## C=C(CC)C(=O)c1ccc(OCC(=O)O)c(Cl)c1Cl [ethacrynic acid, reference compound]
[3]; 64 mg/kg
  Diuresis Drug to Urea Ratio (Vol.): 2.5

## CNC1=Nc2ccc(Cl)cc2C(c2ccccc2)=[N+]([O-])C1 [Chlorodiazepoxide, reference compound]
[1]
  inhibition in vivo at 8 mg/kg: 50%

## Clc1ccc(OC2CNCc3ccccc32)cc1 (stereo not drawn) [4-(p-Chlorophenoxy)-1,2,3,4-tetrahydroisoquinoline hydrochloride]
[1]; intraperitoneal, 23.4 mg/kg
  inhibition in vivo at 23.4 mg/kg: 50%

## 1,2,3,4-tetrahydro-4-(p-trifluoromethylphenyl)isoquinoline hydrochloride
[2]; 25.0 mg/kg
  % Inhibition of phenyl-para-quinone induced writhing: 51%

## O=C(O)COc1ccc(C(=O)c2cccs2)c(Cl)c1Cl [tienilic acid, reference compound]
[3]; 64 mg/kg
  Diuresis Drug to Urea Ratio (Vol.): 1.8

## FC(F)(F)c1cccc(OC2CNCc3ccccc32)c1 (stereo not drawn) [1,2,3,4-Tetrahydro-4-(m-trifluoromethylphenoxy)isoquinoline maleate]
[1]; intraperitoneal, 21.0 mg/kg
  inhibition in vivo at 21 mg/kg: 50%

## FC(F)(F)c1ccc(OC2CN(CCCN3CCCCC3)Cc3ccccc32)cc1.O=C(O)C(=O)O.O=C(O)C(=O)O (stereo not drawn) [2-(3-Piperidinopropyl)-1,2,3,4-tetrahydro-4-(p-trifluoromethylphenoxy)isoquinoline dioxalate]
[3]; 10 mg/kg
  Diuresis Drug to Urea Ratio (Vol.): 1.6
  Sodium Drug to Urea Ratio: 2.2
[2]; 15.4 mg/kg
  % Inhibition of phenyl-para-quinone induced writhing: 50%

## CN(C)CCCN1Cc2ccccc2C(Oc2ccc([N+](=O)[O-])cc2)C1 (stereo not drawn) [2-(3-N,N-dimethylaminopropyl)-4-(p-nitrophenoxy)-1,2,3,4-tetrahydroisoquinoline dihydrochloride]
[2]; 14.7 mg/kg
  % Inhibition of phenyl-para-quinone induced writhing: 50%

## O=C(O)/C=C\C(=O)O.O=[N+]([O-])c1ccc(OC2CNCc3ccccc32)cc1 (stereo not drawn) [4-(p-Nitrophenoxy)-1,2,3,4-tetrahydroisoquinoline maleate]
[2]; 25.0 mg/kg
  % Inhibition of phenyl-para-quinone induced writhing: 65%

## CN(C)CCCN1Cc2ccccc2C(Oc2cccc(C(F)(F)F)c2)C1.O=C(O)/C=C\C(=O)O.O=C(O)/C=C\C(=O)O (stereo not drawn) [2-(3-Dimethylaminopropyl)-1,2,3,4-tetrahydro-4-(m-trifluoromethylphenoxy)isoquinoline dimaleate]
[1]; intraperitoneal
  inhibition in vivo at 50 mg/kg: 100%
[2]; 25.0 mg/kg
  % Inhibition of phenyl-para-quinone induced writhing: 53%

## CN(C)CCCN1Cc2ccccc2C(Oc2ccc(C(F)(F)F)cc2)C1 (stereo not drawn) [2-(3-Dimethylaminopropyl)-1,2,3,4-tetrahydro-4-(p-trifluoromethylphenoxy)isoquinoline dihydrochloride]
[1]; intraperitoneal, 14.4 mg/kg
  inhibition in vivo at 14.4 mg/kg: 50%

## CN1C(=O)CN=C(c2ccccc2)c2cc(Cl)ccc21 [Diazepam, reference compound]
[1]
  inhibition in vivo at 1.7 mg/kg: 50%

## FC(F)(F)c1ccc(OC2CNCc3ccccc32)cc1 (stereo not drawn) [1,2,3,4-Tetrahydro-4-(p-trifluoromethylphenoxy)isoquinoline hydrochloride]
[1]; intraperitoneal, 35.0 mg/kg
  inhibition in vivo at 35 mg/kg: 50%

## CN(C)CCN1Cc2ccccc2C(Oc2ccc(C(F)(F)F)cc2)C1 (stereo not drawn) [2-(2-N,N--dimethylaminoethyl)-1,2,3,4-tetrahydro-4-(p-trifluoromethylphenoxy)isoquinoline]
[3]; 25 mg/kg
  Diuresis Drug to Urea Ratio (Vol.): 1.1
  Sodium Drug to Urea Ratio: 1.4

## CN1Cc2ccccc2C(Oc2ccc(C(F)(F)F)cc2)C1 (stereo not drawn) [4-(p-Trifluoromethylphenoxy)-2-methyl-1,2,3,4-tetrahydroisoquinoline oxalate]
[1]; intraperitoneal
  inhibition in vivo at 50 mg/kg: 50%

## CN1Cc2ccccc2C(Oc2ccc([N+](=O)[O-])cc2)C1 (stereo not drawn) [2-Methyl-4-(p-nitrophenoxy)-1,2,3,4-tetrahydroisoquinoline]
[4]; [6]
  ED50: 4.5 mg/kg
[5]; 20 mg/kg
  inhibition of the ptosis of tetrabenazine-induced depression: 30%

## CN1Cc2ccccc2C(Oc2cccc(C(F)(F)F)c2)C1.O=C(O)/C=C\C(=O)O (stereo not drawn) [2-Methyl-1,2,3,4-tetrahydro-4-(m-trifluoromethylphenoxy)isoquinoline maleate]
[1]; intraperitoneal
  inhibition in vivo at 50 mg/kg: 67%
[4]; [6]
  ED50: 7.8 mg/kg
[5]; 20 mg/kg
  inhibition of the ptosis of tetrabenazine-induced depression: 50%

## CN1Cc2ccccc2C(Oc2ccc(C#N)cc2)C1 (stereo not drawn) [4-(p-Cyanophenoxy)-2-methyl-1,2,3,4-tetrahydroisoquinoline]
[3]; 50 mg/kg
  Diuresis Drug to Urea Ratio (Vol.): 1.1
  Sodium Drug to Urea Ratio: 1.2

## CN(C)CCC=C1c2ccccc2CCc2ccccc21 [Amitriptyline, reference compound]
[4]; standard, unit inferred, read-out: ED50 (5-HTP potentiation), standard
  ED50: 7.1 mg/kg
[5]; 2 mg/kg
  inhibition of the ptosis of tetrabenazine-induced depression: 50%

## CCN(CC)CCN1Cc2ccccc2C(Oc2ccc(C(F)(F)F)cc2)C1 (stereo not drawn) [2-(2-N,N-Diethylaminoethyl)-4-(p-trifluoromethylphenoxy)-1,2,3,4-tetrahydroisoquinoline dioxalate]
[3]; 25 mg/kg
  Diuresis Drug to Urea Ratio (Vol.): 1.4
  Sodium Drug to Urea Ratio: 1.0
[1]; intraperitoneal, 14.8 mg/kg
  inhibition in vivo at 14.8 mg/kg: 50%
[2]; 21.8 mg/kg
  % Inhibition of phenyl-para-quinone induced writhing: 50%

## CN(C)CCCN1Cc2ccccc2C(Oc2ccc(Cl)cc2)C1 (stereo not drawn) [4-(p-Chlorophenoxy)-2-(3-dimethylaminopropyl)-1,2,3,4-tetrahydroisoquinoline dimaleate]
[1]; intraperitoneal
  inhibition in vivo at 50 mg/kg: 100%
